Test results as given in ChEMBL document CHEMBL4706663, “Large-scale isolation and antitumor mechanism evaluation of compounds from the traditional Chinese medicine Cordyceps Militaris” (Eur J Med Chem, 2021).
Calls of active or inactive are those of the source. The calls are words filed in the database; no cut-off is given here.

Tests used:
[1] = Toxicity in […] lung cancer cells xenografted BALB/c mouse assessed as net weight at 27 mg/kg, ig administered every day for 10 days (reference value: 1.16 +/- 1.55 g); format: organism-based; settings: in vivo, po, 240 h, time 10 day
[2] = biological target: Tropomyosin alpha-4 chain (Homo sapiens) (UniProt P67936); assay: Binding affinity to tropomyosin alpha-4 chain isoform 1 in human A549 cells by LC-MS/MS analysis; format: cell-based
Chain of Tropomyosin alpha-4 chain (Homo sapiens) (P67936 whole entry, canonical isoform): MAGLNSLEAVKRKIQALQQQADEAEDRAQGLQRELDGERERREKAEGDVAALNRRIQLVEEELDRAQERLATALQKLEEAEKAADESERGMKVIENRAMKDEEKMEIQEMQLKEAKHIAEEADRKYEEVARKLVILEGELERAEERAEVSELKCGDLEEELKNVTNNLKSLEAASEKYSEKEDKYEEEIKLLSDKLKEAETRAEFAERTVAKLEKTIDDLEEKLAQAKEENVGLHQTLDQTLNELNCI

[3] = Toxicity in […] cells xenografted KM mouse assessed as net weight at 27 mg/kg, ig administered every day for 10 days (reference value: 9.45 +/- 4 g); format: organism-based; settings: in vivo, po, 240 h, time 10 day
[4] = biological target: Heat shock cognate 71 kDa protein (Homo sapiens) (UniProt P11142); assay: Binding affinity to heat shock cognate 71 kDa protein isoform 1 in human A549 cells by LC-MS/MS analysis; format: cell-based
Chain of Heat shock cognate 71 kDa protein (Homo sapiens) (P11142 2-646 limits assumed): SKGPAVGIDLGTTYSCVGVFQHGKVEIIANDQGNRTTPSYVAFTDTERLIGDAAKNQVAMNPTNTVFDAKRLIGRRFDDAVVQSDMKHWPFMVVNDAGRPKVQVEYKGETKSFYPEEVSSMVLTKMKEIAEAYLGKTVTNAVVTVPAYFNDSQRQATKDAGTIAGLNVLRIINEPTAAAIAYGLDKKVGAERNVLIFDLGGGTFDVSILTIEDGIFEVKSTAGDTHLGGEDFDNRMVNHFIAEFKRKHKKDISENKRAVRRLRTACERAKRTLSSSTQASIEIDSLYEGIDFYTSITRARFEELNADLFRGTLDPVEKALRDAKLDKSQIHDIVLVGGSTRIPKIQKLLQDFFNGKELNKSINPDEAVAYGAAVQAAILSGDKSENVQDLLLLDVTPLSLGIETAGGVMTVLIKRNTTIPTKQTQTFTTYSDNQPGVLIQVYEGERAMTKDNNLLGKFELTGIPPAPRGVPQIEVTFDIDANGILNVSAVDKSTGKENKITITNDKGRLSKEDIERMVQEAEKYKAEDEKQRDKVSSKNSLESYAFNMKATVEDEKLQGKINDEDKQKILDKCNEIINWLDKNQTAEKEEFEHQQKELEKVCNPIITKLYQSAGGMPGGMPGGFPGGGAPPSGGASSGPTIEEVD

[5] = Antitumor activity against […] cancer cells xenografted in BALB/c mouse assessed as tumor weight at 80 mg/kg, ig administered every day for 10 days (reference value: 1.68 +/- 0.78 g); format: functional, Lewis lung carcinoma; settings: time 10 day
[6] = Antitumor activity against […] cancer cells xenografted in BALB/c mouse assessed as tumor growth inhibition at 27 mg/kg, ig administered every day for 10 days relative to control; format: functional; settings: Lewis lung carcinoma, po, 240 h, time 10 day, read-out: TGI
[7] = biological target: T1, Delta(3,5)-Delta(2,4)-dienoyl-CoA isomerase, mitochondrial (Homo sapiens) (UniProt Q13011); assay: Binding affinity to delta(3,5)-delta(2,4)-dienoyl-CoA isomerase, mitochondrial in human A549 cells by LC-MS/MS analysis; format: cell-based
T1 sequence (whole entry): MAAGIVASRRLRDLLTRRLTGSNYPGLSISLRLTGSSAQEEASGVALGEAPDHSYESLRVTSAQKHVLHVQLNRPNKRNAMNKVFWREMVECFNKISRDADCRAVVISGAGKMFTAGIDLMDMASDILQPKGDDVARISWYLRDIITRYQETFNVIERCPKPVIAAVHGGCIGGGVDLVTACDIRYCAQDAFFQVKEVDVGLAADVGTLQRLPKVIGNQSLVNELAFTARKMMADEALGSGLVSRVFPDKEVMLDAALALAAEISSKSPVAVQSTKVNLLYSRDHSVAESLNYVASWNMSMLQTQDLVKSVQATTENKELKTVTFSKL

[8] = Antitumor activity against […] cells xenografted in KM mouse assessed as liver weight at 80 mg/kg, ig administered every day for 10 days measured post last dose (reference value: 1.57 +/- 0.3 g); format: functional; settings: time 10 day

Structure (SMILES): CC(C)[C@@H](C)/C=C/[C@@H](C)[C@H]1CC[C@H]2C3=CC=C4C[C@@H](O)CC[C@]4(C)[C@H]3CC[C@]12C [ERGOSTEROL]
- Activity [1]: -0.36 g
- Activity [2]: Active
- Activity [3]: 6.92 g
- Activity [4]: Active
- Activity [5]: 1.21 g
- inhibition in vivo at 27 mg/kg [6]: 15.8%
- Activity [7]: Active
- Activity [8]: 1.87 g
